# Calls of active or inactive are those of the source. No cut-off for these calls is given here.
# Columns and labels:
# RAW264.7 [1] = test: Inhibition of LPS-induced NO production in mouse RAW264.7 cells at 5 uM preincubated with compound for 2 hrs followed by LPS stimulation for 24 hrs by Griess reagent based assay relative to control; format: functional; settings: time 26 hrs
# RAW264.7 [2] = test: Cytotoxicity against mouse RAW264.7 cells assessed as effect on cell viability at 5 uM incubated for 24 hrs by alamar blue reagent based fluorescence assay; format: toxicity; settings: raw264.7, 24 h
# RAW264.7 [3] = test: Inhibition of LPS-induced NO production in mouse RAW264.7 cells preincubated with compound for 2 hrs followed by LPS stimulation for 24 hrs by Griess reagent based assay; format: functional, cell-based
# RAW264.7 [4] = test: Antiinflammatory activity in LPS-induced mouse RAW264.7 cells assessed as enhancement of STAT3 phosphorylation at 20 uM pretreated with compound for 2 hrs followed by LPS-stimulation and measured after 30 mins by Western blot analysis; format: functional, cell-based; settings: time 2.5 hrs
# RAW264.7 [5] = test: Antiinflammatory activity in LPS-induced mouse RAW264.7 cells assessed as enhancement of STAT3 phosphorylation at […] pretreated with compound for 2 hrs followed by LPS-stimulation and measured after 30 mins by Western blot analysis; format: functional, cell-based; settings: time 2.5 hrs
# RAW264.7 [6] = test: Antiinflammatory activity in LPS-induced mouse RAW264.7 cells assessed as enhancement of JAK2 phosphorylation at […] pretreated with compound for 2 hrs followed by LPS-stimulation and measured after 30 mins by Western blot analysis; format: functional, cell-based; settings: time 2.5 hrs
# RAW264.7 [7] = test: Antiinflammatory activity in LPS-induced mouse RAW264.7 cells assessed as enhancement of JAK2 phosphorylation at 20 uM pretreated with compound for 2 hrs followed by LPS-stimulation and measured after 30 mins by Western blot analysis; format: functional, cell-based; settings: time 2.5 hrs
SMILES,inhibition at 5 µM (RAW264.7 [1]) [%],Activity (RAW264.7 [2]),also measured
Oc1ccc(CC[C@@H](O)CC/C=C/c2ccccc2)cc1O,34.7,Non-Toxic,
COc1cc(/C=C/C(=O)CC(=O)/C=C/c2ccc(O)c(OC)c2)ccc1O [CURCUMIN],74,Non-Toxic,IC50 (RAW264.7 [3]): 1890 nM
COc1ccc(OC)c(/C=C/C=C/C(=O)/C=C/c2ccc(OC)c(O)c2)c1,101,Non-Toxic,IC50 (RAW264.7 [3]): 610 nM
COc1ccc(CCCCC(=O)CCc2cccc(O)c2)c(OC)c1,2.74,Non-Toxic,
"Oc1ccc(CCC(O)/C=C/C=C/c2ccccc2)cc1O (single isomer, unassigned)",12.3,Non-Toxic,
O=C(CCc1ccccc1)C[C@@H](O)CCc1ccccc1,14.7,Non-Toxic,
O=C(/C=C/C=C/c1ccccc1)CCc1ccccc1,52.8,Non-Toxic,
COc1ccc(/C=C2\CCCN=C2c2cccnc2)c(OC)c1,,,Activity (RAW264.7 [4]): Active; Activity (RAW264.7 [5]): Active; Activity (RAW264.7 [6]): Active; Activity (RAW264.7 [7]): Active
COc1ccc(OC)c(CCCCC(O)CCc2ccc(OC)c(O)c2)c1 (stereo not drawn),36.2,Non-Toxic,
O[C@@H](CC/C=C/c1ccccc1)CCc1ccc(OCc2ccccc2)cc1,-15.7,Non-Toxic,
CC(=O)Oc1ccc(CCC(=O)CCCCc2ccccc2)cc1,45.2,Non-Toxic,
COC(/C=C/C=C/c1ccccc1)CCc1ccc(O)cc1 (stereo not drawn),66.3,Non-Toxic,
COc1cc(CC[C@@H](O)CC/C=C/c2ccccc2)ccc1O,47.9,Non-Toxic,
O=C(CCc1ccccc1)C[C@@H](O)/C=C/c1ccccc1,11,Non-Toxic,
COc1cc(CCC(O)/C=C/C=C/c2ccccc2)ccc1O (stereo not drawn),35.3,Non-Toxic,
O=C(CCCCc1ccccc1)CCc1ccc(O)cc1,68.3,Non-Toxic,
COc1cc(CCC(=O)CC/C=C/c2ccccc2)ccc1O,52.2,Non-Toxic,
COc1ccc(CCC(=O)CCCCc2cccc(O)c2)cc1O,8.39,Non-Toxic,
CC(=O)OCC[N+](C)(C)C,,,Activity (RAW264.7 [4]): Active; Activity (RAW264.7 [5]): Active; Activity (RAW264.7 [6]): Active; Activity (RAW264.7 [7]): Active
O[C@@H](CCCCc1ccccc1)CCc1ccccc1,40.1,Non-Toxic,
COc1ccc(/C=C/C=C/C(=O)/C=C/c2cccc(O)c2)c(OC)c1,82.3,Non-Toxic,IC50 (RAW264.7 [3]): 970 nM
COc1ccc(CCCCC(O)CCc2ccc(OC)c(O)c2)c(OC)c1 (stereo not drawn),-2.9,Non-Toxic,
COc1ccc(CCCCC(O)CCc2cccc(O)c2)c(OC)c1 (stereo not drawn),-14.5,Non-Toxic,
O/N=C(/CC/C=C/c1ccccc1)CCc1ccccc1,39.4,Non-Toxic,
COc1ccc(OC)c(CCCCC(=O)CCc2ccc(OC)c(O)c2)c1,39.4,Non-Toxic,

SMILES,inhibition at 5 µM (RAW264.7 [1]) [%],Activity (RAW264.7 [2]),also measured
COc1ccc(/C=C/C(=O)/C=C/C=C/c2cccc(O)c2)cc1,85.8,Non-Toxic,IC50 (RAW264.7 [3]): 1230 nM
COc1ccc(CCC(=O)CCCCc2cccc(O)c2)cc1,21.4,Non-Toxic,
O=C(/C=C/C=C/c1cccc(O)c1)/C=C/c1cccc(O)c1,95.9,Non-Toxic,IC50 (RAW264.7 [3]): 580 nM
COc1ccc(CCC(=O)CC/C=C/c2ccccc2)cc1,-17.2,Non-Toxic,
Oc1ccc(CCC(O)CC(O)CCc2ccccc2)cc1 (stereo not drawn),20.5,Non-Toxic,
Oc1ccc(CC[C@@H](O)CC/C=C/c2ccccc2)cc1,20.4,Non-Toxic,
O=C(CC/C=C/c1ccccc1)CCc1ccc(O)cc1,46.1,Non-Toxic,
COc1cccc(/C=C/C=C/C(=O)/C=C/c2cccc(O)c2)c1,92.3,Non-Toxic,IC50 (RAW264.7 [3]): 410 nM
COc1cccc(/C=C/C(=O)/C=C/C=C/c2cccc(O)c2)c1,84.3,Non-Toxic,IC50 (RAW264.7 [3]): 810 nM
Oc1ccc(CCCC[C@H](O)CCc2ccccc2)cc1,23.9,Non-Toxic,
CC(=O)Oc1ccc(CC[C@@H](O)CC/C=C/c2ccccc2)cc1OC(C)=O,121,Non-Toxic,IC50 (RAW264.7 [3]): 1610 nM
O[C@@H](/C=C/C=C/c1ccccc1)CCc1ccccc1,4.61,Non-Toxic,
O[C@@H](CC/C=C/c1ccccc1)CCc1ccccc1,-18.3,Non-Toxic,
OC(CCc1ccccc1)CC(O)CCc1ccccc1 (stereo not drawn),23.5,Non-Toxic,
CC(=O)Oc1ccc(CCC(=O)CCCCc2ccccc2)cc1OC(C)=O,128,Non-Toxic,IC50 (RAW264.7 [3]): 370 nM
O=C(CCCCc1ccccc1)CCc1ccccc1,38.9,Non-Toxic,
CC(=O)Oc1ccc(CC[C@@H](O)CCCCc2ccccc2)cc1OC(C)=O,99.2,Non-Toxic,IC50 (RAW264.7 [3]): 330 nM
O=C(/C=C/C=C/c1ccccc1)CCc1ccc(O)cc1,60.4,Non-Toxic,
COc1ccc(CCCCC(=O)CCc2ccc(OC)c(O)c2)c(OC)c1,16.6,Non-Toxic,
COc1ccc(CCC(/C=C/C=C/c2ccccc2)OC)cc1O (stereo not drawn),71.1,Non-Toxic,
Oc1ccc(CC[C@@H](O)CCCCc2ccccc2)cc1O,54,Non-Toxic,
O=C(CC/C=C/c1ccccc1)CCc1ccccc1,-8.52,Non-Toxic,
CC(=O)Oc1ccc(CCC(=O)CC/C=C/c2ccccc2)cc1,22.2,Non-Toxic,
C(=C\C=C\c1ccccc1)/C=C/Cc1ccccc1,124,Non-Toxic,IC50 (RAW264.7 [3]): 840 nM

# From ChEMBL document CHEMBL5120875, “Discovery of diarylheptanoids that activate α7 nAchR-JAK2-STAT3 signaling in macrophages with anti-inflammatory activity in vitro and in vivo” (Bioorg Med Chem, 2022)
